From paper PMC7139822, “Flumazenil-Insensitive Benzodiazepine Effects in Recombinant αβ and Neuronal GABAA Receptors” (Brain Sciences, 2020) come the findings set out here.

This assay concerns the target T1, α1β2 receptor (Rattus norvegicus, UniProt P62813+P63138).
T1 construct: gene Gabra1; full-length rat subunit cDNAs by RT-PCR from brain mRNA; α in pcDNA3.1(+), β in pIRES2-EGFP (EGFP separate via IRES); HEK293; α:β cDNA 1:1, said to favor 2α:3β pentamer
Put plainly: whole-cell patch clamp, HEK293. The format is cell-based. The note with it: 200 µM; positive allosteric modulator, non-classical site; co-applied with 0.1 μmol/L GABA; −60 mV; pH 7.4. The text has this: whole-cell patch clamp, HEK293 on α1β2 receptor
In general terms: The patch-clamp technique gives a direct electrical read-out from membranes.

The structures appear in SMILES notation.

T1 sequence (P62813 28-455): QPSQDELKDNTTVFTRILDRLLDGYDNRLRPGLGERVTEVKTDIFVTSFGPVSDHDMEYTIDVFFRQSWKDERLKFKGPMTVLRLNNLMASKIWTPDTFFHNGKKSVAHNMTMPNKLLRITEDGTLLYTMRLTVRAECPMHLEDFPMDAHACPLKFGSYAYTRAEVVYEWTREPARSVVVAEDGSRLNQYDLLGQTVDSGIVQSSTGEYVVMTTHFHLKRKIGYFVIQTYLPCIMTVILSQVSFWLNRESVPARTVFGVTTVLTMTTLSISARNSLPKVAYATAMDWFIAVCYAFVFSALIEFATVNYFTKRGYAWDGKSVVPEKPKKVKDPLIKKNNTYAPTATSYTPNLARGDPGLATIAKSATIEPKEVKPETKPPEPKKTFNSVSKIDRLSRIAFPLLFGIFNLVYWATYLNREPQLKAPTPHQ
T1 sequence (P63138 26-474): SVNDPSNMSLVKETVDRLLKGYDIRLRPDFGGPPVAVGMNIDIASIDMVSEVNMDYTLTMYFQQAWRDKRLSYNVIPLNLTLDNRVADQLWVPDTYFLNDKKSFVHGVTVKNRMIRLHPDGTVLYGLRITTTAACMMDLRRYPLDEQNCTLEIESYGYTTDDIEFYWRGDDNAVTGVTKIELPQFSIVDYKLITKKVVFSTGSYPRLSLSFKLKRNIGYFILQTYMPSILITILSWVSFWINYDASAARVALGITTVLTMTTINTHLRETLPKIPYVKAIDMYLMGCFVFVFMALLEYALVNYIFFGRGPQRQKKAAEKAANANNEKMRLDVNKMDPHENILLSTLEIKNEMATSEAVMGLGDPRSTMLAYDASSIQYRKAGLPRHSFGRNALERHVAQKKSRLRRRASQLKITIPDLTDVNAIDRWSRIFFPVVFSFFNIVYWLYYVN

For `Cc1ncc2n1-c1ccc(Cl)cc1C(c1ccccc1F)=NC2` [Midazolam], the “Potentiation of GABA Currents (%) / (Midazolam)” value worked out at 171.8 ± 13.8%.
